Experimental data published in US20220395553A1, “CXCR4 ANTAGONIST PEPTIDES” (COHBAR, INC., priority 2019, published 2022).
Square brackets hold non-standard residues; d marks the D form. Peptide text beside a SMILES is read from it.

Key:
[1] = tested on: CXCR4/CXCL12 induced p-MEK; experiment: CXCR4/CXCL12 induced p-MEK in Jurkat cells (ELISA); format: cell-based, human; settings: 5 nM CXCL12, 5 min
Description: The assay was performed following a protocol similar to that described by Peng, et al., Mol Cancer Ther., 14 480-90 (2015), incorporated herein by reference. […] Jurkat cells were resuspended in standard growth media (RPMI+GlutaMax media; Gibco/Thermo Fisher Scientific; Gaithersburg, Md.) containing 10% FBS and 1% penicillin/streptomycin. Assays were performed using fresh or conditioned media (media cultured overnight in presence of Jurkat cells) to resuspend cells at density of 2×10^6 cells/ml and […] of cell suspension was immediately placed in 1.7 ml microfuge tubes. […] Following the 5 min incubation, cells were centrifuged at 1000×g for 4 min at 4° C. The supernatant was removed and the cells were rinsed with 1 ml of HBSS containing calcium and magnesium. The HBSS was removed and the cells were immediately lysed in 150 l of lysis buffer included with Phospho-MEK1 (Ser217/221) Sandwich ELISA kit (Cell Signaling Technology; Danvers, Mass.); lysis buffer was supplemented with 1 m M PMSF (Millipore-Sigma; Saint Louis, Mo.) and Halt protease/phosphatase inhibitor cocktail (Thermo-Fisher; Waltham, Mass.) prior to use. The samples were then placed on ice for 10 min and vortexed periodically. Following the lysis step, the samples were centrifuged at 12,500 rpm for 10 min at 4° C. p-MEK expression in each of the samples was then measure using Phospho-MEK1 (Ser217/221) Sandwich ELISA kit according to manufacturer's instructions. Absorbance was measured using a Cytation 3 plate reader at […] (BioTek; Winooski, Vt.).

[2] = target: T1, human CXCR4 (Homo sapiens, UniProt P61073); experiment: IC50 for inhibition of CXCR4 activation, β-Arrestin recruitment (Example 22); format: cell-based; set-up: host or cells: C2C12 (mouse myoblast) CXCR4 β-Arrestin PathHunter cell line
Description: The assay was run with the DiscoverX protocol. β-Arrestin recruitment assays were performed by Eurofins-DiscoverX (Fremont, Calif.) using C2C12 CXCR4 β-Arrestin cell line (co-expressing ProLink tagged human CXCR4 and Enzyme Acceptor tagged β-Arrestin) and PathHunter detection kit. Peptides were initially prepared as 1 mM stock in H2O and tested in ten (10)-step concentration response curves using 3-fold dilution steps with 1 μM as highest concentration; a concentration range of 1 μM-0.05 nM was tested. C2C12 CXCR4 β-Arrestin cells were seed onto 384-well plates in standard medium. […] At the end of the 90 min incubation period, β-Arrestin recruitment in response to various treatments was quantified using a chemiluminescent complementation reporter assay to measure association of tagged human […] (ProLink tag) and tagged β-Arrestin (Enzyme Acceptor tag).

[3] = target: T1, human CXCR4; experiment: CXCR4/CXCL12 binding, HTRF format, single concentration (Example 23); set-up: host or cells: HEK293 (Tag-lite CXCR4 cells, frozen aliquots, transient expression); settings: 15 nM CXCR4R fluorescent probe, 3 hours, HEK293 Tag-lite CXCR4 cells
In short: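 Tag-lite CXCR4 cells were exposed to peptide at 400 nM final with 15 nM (EC80) fluorescent CXCR4 probe for 3 h at room temperature. HTRF was read, and the 665/620 nm ratio ×10,000 measured probe bound to terbium-labelled receptor.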

T1 sequence (P61073 whole entry): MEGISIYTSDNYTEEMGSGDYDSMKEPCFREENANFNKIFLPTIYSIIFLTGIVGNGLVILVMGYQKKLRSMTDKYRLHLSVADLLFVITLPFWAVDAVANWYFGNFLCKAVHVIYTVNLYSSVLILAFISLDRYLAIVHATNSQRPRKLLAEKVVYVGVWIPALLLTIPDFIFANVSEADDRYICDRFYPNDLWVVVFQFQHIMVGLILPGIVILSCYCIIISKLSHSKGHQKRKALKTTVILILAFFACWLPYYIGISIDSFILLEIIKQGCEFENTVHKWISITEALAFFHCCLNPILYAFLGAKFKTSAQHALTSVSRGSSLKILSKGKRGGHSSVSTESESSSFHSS

| Structure (SMILES) | Percent Inhibition of CXCR4/CXCL12 Induced p-MEK (100 nM Test Article) [1] | Percent Inhibition of CXCR4/CXCL12 Induced p-MEK (1 μM Test Article) [1] | IC50 [2] | Percent Inhibition of CXCR4/CXCL12 Binding (400 nM peptide) [3] |
| --- | --- | --- | --- | --- |
| CC(C)C[C@H](NC(=O)[C@H](CO)NC(=O)[C@H](CO)NC(=O)[C@H](CCCNC(=N)N)NC(=O)[C@@H](NC(=O)[C@H](CO)NC(=O)[C@H](Cc1c[nH]cn1)NC(=O)[C@H](Cc1c[nH]cn1)NC(=O)[C@H](Cc1ccc(O)cc1)NC(=O)[C@H](CC(=O)O)NC(=O)[C@H](CCCNC(=N)N)NC(=O)[C@@H](N)CC(C)C)C(C)C)C(=O)N[C@@H](CCCNC(=N)N)C(=O)N1CCC[C@H]1C(=O)N[C@@H](Cc1ccc(O)cc1)C(=O)N[C@H](C(=O)N[C@@H](CCCCN)C(=O)O)[C@@H](C)O [compound 36] (H-LRDYHHSVRSSLRPYTK-OH; N-terminus and C-terminus assumed) | 22% | −5% | > 1000 nM | −11% |
| CC(C)C[C@H](NC(=O)[C@H](CO)NC(=O)[C@H](CO)NC(=O)[C@H](CCCNC(=N)N)NC(=O)[C@@H](C)NC(=O)[C@H](CO)NC(=O)[C@H](Cc1c[nH]cn1)NC(=O)[C@H](Cc1c[nH]cn1)NC(=O)[C@H](Cc1ccc(O)cc1)NC(=O)[C@H](CCCNC(=N)N)NC(=O)[C@H](CCC(=O)O)NC(=O)[C@@H](N)CC(C)C)C(=O)N[C@@H](CCCNC(=N)N)C(=O)NCC(=O)N[C@@H](Cc1ccc(O)cc1)C(=O)N[C@H](C(=O)N[C@@H](CCCCN)C(=O)O)[C@@H](C)O [compound 81] (H-LERYHHS[dA]RSSLRGYTK-OH; N-terminus and C-terminus assumed) | −16% | 20% | 3 nM | 81% |
| CC(C)C[C@H](NC(=O)[C@H](CO)NC(=O)[C@H](CO)NC(=O)[C@H](CCCNC(=N)N)NC(=O)[C@@H](NC(=O)[C@H](CO)NC(=O)[C@H](Cc1c[nH]cn1)NC(=O)[C@H](Cc1c[nH]cn1)NC(=O)[C@H](Cc1ccc(O)cc1)NC(=O)[C@H](CCCNC(=N)N)NC(=O)[C@H](CCC(=O)O)NC(=O)[C@@H](C)N)C(C)C)C(=O)N[C@@H](CCCNC(=N)N)C(=O)N1CCC[C@H]1C(=O)N[C@@H](Cc1ccc(O)cc1)C(=O)N[C@H](C(=O)N[C@@H](CCCCN)C(=O)O)[C@@H](C)O [compound 34] (H-[dA]ERYHHSVRSSLRPYTK-OH; N-terminus and C-terminus assumed) | −1% | 2% | > 1000 nM | −17% |
| CC(C)C[C@H](NC(=O)[C@H](CO)NC(=O)[C@H](CO)NC(=O)[C@H](CCCNC(=N)N)NC(=O)[C@@H](C)NC(=O)[C@@H](NC(=O)[C@H](Cc1c[nH]cn1)NC(=O)[C@H](Cc1c[nH]cn1)NC(=O)[C@H](Cc1ccc(O)cc1)NC(=O)[C@H](CCCNC(=N)N)NC(=O)[C@H](CCC(=O)O)NC(=O)[C@@H](N)CC(C)C)[C@@H](C)O)C(=O)N[C@@H](CCCNC(=N)N)C(=O)N1CCC[C@H]1C(=O)N[C@@H](Cc1ccc(O)cc1)C(=O)N[C@H](C(=O)N[C@@H](CCCCN)C(=O)O)[C@@H](C)O [compound 40] (H-LERYHHT[dA]RSSLRPYTK-OH; N-terminus and C-terminus assumed) | 33% | 94% | 5 nM | 76% |
| CC(C)C[C@H](NC(=O)[C@H](CO)NC(=O)[C@H](CO)NC(=O)[C@H](CCCNC(=N)N)NC(=O)[C@@H](NC(=O)[C@H](CO)NC(=O)[C@H](Cc1c[nH]cn1)NC(=O)[C@H](Cc1c[nH]cn1)NC(=O)[C@H](Cc1ccc(O)cc1)NC(=O)[C@H](CCCNC(=N)N)NC(=O)[C@H](CCCNC(=N)N)NC(=O)[C@@H](C)N)C(C)C)C(=O)N[C@@H](CCCNC(=N)N)C(=O)N1CCC[C@H]1C(=O)N[C@@H](Cc1ccc(O)cc1)C(=O)N[C@H](C(=O)N[C@@H](CCCCN)C(=O)O)[C@@H](C)O [compound 33] (H-[dA]RRYHHSVRSSLRPYTK-OH; N-terminus and C-terminus assumed) | 7% | 42% | 7 nM | 77% |
| CC(C)C[C@H](NC(=O)[C@H](CO)NC(=O)[C@H](CO)NC(=O)[C@H](CCCNC(=N)N)NC(=O)[C@@H](NC(=O)[C@H](CO)NC(=O)[C@H](Cc1c[nH]cn1)NC(=O)[C@H](Cc1c[nH]cn1)NC(=O)[C@H](Cc1ccc(O)cc1)NC(=O)[C@H](CCCNC(=N)N)NC(=O)[C@H](CCCNC(=N)N)NC(=O)[C@@H](N)CC(C)C)C(C)C)C(=O)N[C@@H](CCCNC(=N)N)C(=O)N1CCC[C@H]1C(=O)N[C@@H](Cc1ccccc1)C(=O)N[C@H](C(=O)N[C@@H](CCCCN)C(=O)O)[C@@H](C)O [compound 59] (H-LRRYHHSVRSSLRPFTK-OH; N-terminus and C-terminus assumed) | 43% | 93% | 3 nM | −3% |
| CC(C)C[C@H](NC(=O)[C@H](CO)NC(=O)[C@H](CO)NC(=O)[C@H](CCCNC(=N)N)NC(=O)[C@@H](NC(=O)[C@H](CO)NC(=O)[C@H](Cc1c[nH]cn1)NC(=O)[C@H](Cc1c[nH]cn1)NC(=O)[C@H](Cc1ccc(O)cc1)NC(=O)[C@H](CCCNC(=N)N)NC(=O)[C@H](CCCNC(=N)N)NC(=O)[C@@H](N)CC(C)C)C(C)C)C(=O)N[C@@H](CC(=O)O)C(=O)N1CCC[C@H]1C(=O)N[C@@H](Cc1ccc(O)cc1)C(=O)N[C@H](C(=O)N[C@@H](CCCCN)C(=O)O)[C@@H](C)O [compound 67] (H-LRRYHHSVRSSLDPYTK-OH; N-terminus and C-terminus assumed) | −8% | 42% | 14 nM | 3% |
| CC(C)C[C@H](NC(=O)[C@H](CO)NC(=O)[C@H](CO)NC(=O)[C@H](CCCNC(=N)N)NC(=O)[C@@H](NC(=O)[C@H](CO)NC(=O)[C@H](Cc1c[nH]cn1)NC(=O)[C@H](Cc1c[nH]cn1)NC(=O)[C@H](Cc1ccc(O)cc1)NC(=O)[C@H](CCCNC(=N)N)NC(=O)[C@H](CCCNC(=N)N)NC(=O)[C@@H](N)CC(C)C)C(C)C)C(=O)N[C@@H](CCCNC(=N)N)C(=O)N1CCC[C@H]1C(=O)N[C@@H](Cc1ccc(O)cc1)C(=O)N[C@@H](CO)C(=O)N[C@@H](CCCCN)C(=O)O [compound 72] (H-LRRYHHSVRSSLRPYSK-OH; N-terminus and C-terminus assumed) | 8% | 86% | 5 nM | 6% |
| CC(C)C[C@H](NC(=O)[C@H](CO)NC(=O)[C@H](CO)NC(=O)[C@H](CCCNC(=N)N)NC(=O)[C@@H](C)NC(=O)[C@H](CO)NC(=O)[C@H](Cc1c[nH]cn1)NC(=O)[C@H](Cc1c[nH]cn1)NC(=O)[C@H](Cc1ccc(O)cc1)NC(=O)[C@H](CCCNC(=N)N)NC(=O)[C@H](CCC(=O)O)NC(=O)[C@@H](N)CC(C)C)C(=O)N[C@@H](CCCNC(=N)N)C(=O)N1CCC[C@H]1C(=O)N[C@@H](Cc1ccccc1)C(=O)N[C@H](C(=O)N[C@@H](CCCCN)C(=O)O)[C@@H](C)O [compound 61] (H-LERYHHS[dA]RSSLRPFTK-OH; N-terminus and C-terminus assumed) | 15% | 46% | 8 nM | 54% |
